Where two headings read alike, the source gives them in different places.
Experiments:
[1] = test system: E. coli BW25113 overexpression strains (ASKA plasmids); experiment: Minimum inhibitory concentration (MIC), serial broth dilution, single-gene overexpression strains vs empty-vector control; assay type: cell-based, Escherichia coli; details: broth dilution, MS medium, 100 µM IPTG, 30 °C, 20-24 h, OD600, 3 replicates
Experimental: Minimum inhibitory concentrations (MIC) were determined with a standard serial broth dilution technique with a minor modification. Specifically, instead of a two-fold dilution series, smaller AMP concentration steps were used (typically 1.2-fold) for two reasons. […] Second, gene overexpressions caused typically only small changes in the MICs of AMPs and therefore higher resolution was required. The protocol was as follows. From a stock solution of an AMP, 12-steps serial dilution was prepared in fresh MS medium in 96-well microtiter plates. Each AMP was represented in 11 different concentrations (3 wells per AMP concentration per strain). Three wells contained only medium to check the growth in the absence of AMP. After overnight growth in MS medium supplemented with chloramphenicol, bacterial strains were diluted 20-fold into fresh MS medium and grown until the cell density reached OD600 ~1. Cells were induced by 100 µM of IPTG and incubated for 1 h at 30 °C with continuous shaking at 300 rpm. Following incubation, approximately half-million cells were inoculated into the wells of the 96-well microtiter plate with a 96‐pin replicator. We used three independent replicates for each strain and the corresponding control. Two rows in the 96-well plate contained only MS medium in order to obtain the background OD value of the medium. Plates were incubated at 30 °C with continuous shaking at 300 rpm. After 20–24 h of incubation, OD600 values were measured in a microplate reader (Biotek Synergy 2).

[2] = test system: AMP-evolved E. coli lines; details: ref Spohn et al 2019, cited from earlier work
Excerpt: Supplement 41467_2019_13618_MOESM13_ESM.xlsx, sheet "Figure 6 and S15" | column: A comprehensive dataset of antimicrobial susceptibility of AMP-adapted lines to antimicrobial peptides (AMPs).

[3] = test system: bacterial membrane; details: literature mining; ref superscript numbers in the cell, listed in Supplementary Data 7 sheet References; cited from earlier work
Excerpt: Supplement 41467_2019_13618_MOESM10_ESM.xlsx, sheet "AMP details" | column: Pore formation

GWGSFFKKAAHVGKHVGKAALTHYL [PLEU, Pleurocidin, antimicrobial peptide from Pleuronectes americanus; cluster C2]
Relative MIC ([1]; overexpression strain mlaD, MIC of the overexpression strain / MIC of the control strain (wild-type carrying the empty plasmid)): 1
Relative MIC ([1]; overexpression strain nikB, MIC of overexpression strain / MIC of empty-plasmid control): 0.8
Relative change in MIC (MIC of the AMP-adpated line / MIC of the ancestral strain) ([2]; AMP-adapted line BAC5_3): 1
Relative change in MIC (MIC of the AMP-adpated line / MIC of the ancestral strain) ([2]; AMP-adapted line BAC5_5): 0.8
Relative change in MIC (MIC of the AMP-adpated line / MIC of the ancestral strain) ([2]; AMP-adapted line BAC5_7): 1
Relative change in MIC (MIC of the AMP-adpated line / MIC of the ancestral strain) ([2]; AMP-adapted line BAC5_10): 1
Relative change in MIC (MIC of the AMP-adpated line / MIC of the ancestral strain) ([2]; AMP-adapted line CAP18_2): 2.1
Relative change in MIC (MIC of the AMP-adpated line / MIC of the ancestral strain) ([2]; AMP-adapted line CAP18_5): 2.5
Relative change in MIC (MIC of the AMP-adpated line / MIC of the ancestral strain) ([2]; AMP-adapted line CAP18_6): 2.3
Relative change in MIC (MIC of the AMP-adpated line / MIC of the ancestral strain) ([2]; AMP-adapted line CAP18_8): 1.7
Relative change in MIC (MIC of the AMP-adpated line / MIC of the ancestral strain) ([2]; AMP-adapted line CAP18_10): 4.3
Relative change in MIC (MIC of the AMP-adpated line / MIC of the ancestral strain) ([2]; AMP-adapted line HBD3_3): 1.3
Relative change in MIC (MIC of the AMP-adpated line / MIC of the ancestral strain) ([2]; AMP-adapted line HBD3_6): 1.7
Relative change in MIC (MIC of the AMP-adpated line / MIC of the ancestral strain) ([2]; AMP-adapted line HBD3_8): 1.7
Relative change in MIC (MIC of the AMP-adpated line / MIC of the ancestral strain) ([2]; AMP-adapted line HBD3_10): 1.3
Relative change in MIC (MIC of the AMP-adpated line / MIC of the ancestral strain) ([2]; AMP-adapted line LL37_1): 1.4
Relative change in MIC (MIC of the AMP-adpated line / MIC of the ancestral strain) ([2]; AMP-adapted line LL37_3): 1.2
Relative change in MIC (MIC of the AMP-adpated line / MIC of the ancestral strain) ([2]; AMP-adapted line LL37_6): 1.4
Relative change in MIC (MIC of the AMP-adpated line / MIC of the ancestral strain) ([2]; AMP-adapted line LL37_7): 64
Relative change in MIC (MIC of the AMP-adpated line / MIC of the ancestral strain) ([2]; AMP-adapted line LL37_10): 1.6
Relative change in MIC (MIC of the AMP-adpated line / MIC of the ancestral strain) ([2]; AMP-adapted line PEX_1): 2.3
Relative change in MIC (MIC of the AMP-adpated line / MIC of the ancestral strain) ([2]; AMP-adapted line PEX_4): 2.3
Relative change in MIC (MIC of the AMP-adpated line / MIC of the ancestral strain) ([2]; AMP-adapted line PEX_5): 1.4
Relative change in MIC (MIC of the AMP-adpated line / MIC of the ancestral strain) ([2]; AMP-adapted line PEX_6): 2.8
Relative change in MIC (MIC of the AMP-adpated line / MIC of the ancestral strain) ([2]; AMP-adapted line PEX_7): 1.7
Relative change in MIC (MIC of the AMP-adpated line / MIC of the ancestral strain) ([2]; AMP-adapted line PR39_1): 1.4
Relative change in MIC (MIC of the AMP-adpated line / MIC of the ancestral strain) ([2]; AMP-adapted line PR39_2): 1.1
Relative change in MIC (MIC of the AMP-adpated line / MIC of the ancestral strain) ([2]; AMP-adapted line PR39_5): 1
Relative change in MIC (MIC of the AMP-adpated line / MIC of the ancestral strain) ([2]; AMP-adapted line PR39_7): 0.9
Relative change in MIC (MIC of the AMP-adpated line / MIC of the ancestral strain) ([2]; AMP-adapted line PR39_10): 0.9
Relative change in MIC (MIC of the AMP-adpated line / MIC of the ancestral strain) ([2]; AMP-adapted line PROA_2): 1.6
Relative change in MIC (MIC of the AMP-adpated line / MIC of the ancestral strain) ([2]; AMP-adapted line PROA_3): 0.9
Relative change in MIC (MIC of the AMP-adpated line / MIC of the ancestral strain) ([2]; AMP-adapted line PROA_7): 1.1
Relative change in MIC (MIC of the AMP-adpated line / MIC of the ancestral strain) ([2]; AMP-adapted line PROA_8): 1.2
Relative change in MIC (MIC of the AMP-adpated line / MIC of the ancestral strain) ([2]; AMP-adapted line PROA_9): 0.9
Relative change in MIC (MIC of the AMP-adpated line / MIC of the ancestral strain) ([2]; AMP-adapted line PXB_2): 0.9
Relative change in MIC (MIC of the AMP-adpated line / MIC of the ancestral strain) ([2]; AMP-adapted line PXB_5): 1.6
Relative change in MIC (MIC of the AMP-adpated line / MIC of the ancestral strain) ([2]; AMP-adapted line PXB_6): 4.8
Relative change in MIC (MIC of the AMP-adpated line / MIC of the ancestral strain) ([2]; AMP-adapted line PXB_8): 2.1
Relative change in MIC (MIC of the AMP-adpated line / MIC of the ancestral strain) ([2]; AMP-adapted line PXB_10): 6.3
Pore formation (whether AMP makes pores in the bacterial membrane) [3]: Yes18
